Measurements from patent US20100331320A1, “CYCLIC INHIBITORS OF 11BETA-HYDROXYSTEROID DEHYDROGENASE 1” (Vitae Pharmaceuticals, Inc., priority 2009, published 2010).

Legend:
11β-HSD1 = biological target: T1, 11β-HSD1 (Homo sapiens, UniProt P28845); test: biochemical; conditions: read-out: Average % control inhibition at 100 nM
T1 construct: detecting cortisol generated from cortisterone by human liver microsomes
Description: Briefly, compounds were incubated for 1 hour at 37° C. in Tris buffer (20 mM tris, 5 mM EDTA, pH 6.0) containing NADPH (200 μM) and cortisone (80 nM). Cortisol generated in the reaction was then detected with a competitive immunoassay, involving two HTRF conjugates: cortisol linked to XL665 and anti-cortisol antibody labeled with Europium cryptate. The incubation period for detection reaction was typically 2 hours. […] The ratio of the two emission signals was then calculated (Em665*10000/Em615). […] Each assay also contained a calibration curve with cortisol to transform the fluorescent data into cortisol concentrations. Percent inhibition of each compound was determined relative to the carbenoxolone signal.

CYP3A4 = CYP3A4 (Homo sapiens, UniProt P08684); test: Biological Test Example 6: CYP3A4 Inhibition ([N-methyl-14C]-Erythromycin N-demethylation); assay type: in vitro ADME; conditions: recombinant CYP3A4, probe [N-methyl-14C]-Erythromycin (50 μM)
Sequence of CYP3A4 (P08684 whole entry): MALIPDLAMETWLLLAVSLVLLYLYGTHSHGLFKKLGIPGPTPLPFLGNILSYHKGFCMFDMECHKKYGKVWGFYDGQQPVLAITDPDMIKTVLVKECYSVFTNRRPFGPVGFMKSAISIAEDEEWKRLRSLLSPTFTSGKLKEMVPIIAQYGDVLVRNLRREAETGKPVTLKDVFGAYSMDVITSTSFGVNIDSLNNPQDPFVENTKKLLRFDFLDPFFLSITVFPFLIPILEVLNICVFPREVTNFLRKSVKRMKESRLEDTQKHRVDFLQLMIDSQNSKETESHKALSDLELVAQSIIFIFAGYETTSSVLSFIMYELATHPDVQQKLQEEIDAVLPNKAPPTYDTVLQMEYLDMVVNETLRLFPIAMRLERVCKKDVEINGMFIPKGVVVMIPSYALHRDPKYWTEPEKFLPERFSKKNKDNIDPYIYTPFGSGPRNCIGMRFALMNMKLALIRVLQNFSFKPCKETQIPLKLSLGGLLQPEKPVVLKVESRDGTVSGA

[1] = Slurry experiment on stability of the crystalline form (water suspension, XRPD); assay type: physicochemical; conditions: for stability of the anhydrous state: during the measurement by XRPD (30 minutes); for polymorphic change after slurry in water: suspended in water for up to seven days, XRPD of the filtration residue
Description: In this study, a suspension of the monohydrate of Example 48 was suspended in water for up to seven days. After the treatment, the mixtures were filtered and an x-ray powder diffraction of the filtration residue was measured.
In this study, a suspension of the monohydrate of Example 75 was suspended in water for up to seven days. After the treatment, the mixtures were filtered and an x-ray powder diffraction of the filtration residue was measured.

T1 sequence (P28845 whole entry): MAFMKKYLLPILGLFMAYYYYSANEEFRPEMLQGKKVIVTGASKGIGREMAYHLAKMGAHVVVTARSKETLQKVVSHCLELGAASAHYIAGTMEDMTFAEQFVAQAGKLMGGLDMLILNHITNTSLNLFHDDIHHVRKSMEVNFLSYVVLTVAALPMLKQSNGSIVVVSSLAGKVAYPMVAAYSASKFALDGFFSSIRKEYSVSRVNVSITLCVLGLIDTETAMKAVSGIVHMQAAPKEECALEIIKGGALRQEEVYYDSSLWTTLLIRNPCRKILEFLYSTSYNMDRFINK

Compound | percent inhibition at 0.1 µM (11β-HSD1) [%] | further results
C[C@@H](c1ccc(-c2cc(=O)n(C)cc2F)cc1)N1CC[C@](CC(C)(C)O)(c2ccccc2)OC1=O [Example 79, 3-{(S)-1-[4-(5-Fluoro-1-methyl-2-oxo-1,2-dihydro-pyridin-4-yl)-phenyl]-ethyl}-(S)-6-(2-hydroxy-2-methyl-propyl)-6-phenyl-[1,3]oxazinan-2-one] | 15 | 
C[C@@H](c1ccc(-c2ccn(CC(C)(C)O)c(=O)c2)cc1)N1CC[C@](CC(C)(C)O)(c2ccccc2)OC1=O [Example 80, (S)-6-(2-Hydroxy-2-methyl-propyl)-3-((S)-1-{4-[1-(2-hydroxy-2-methyl-propyl)-2-oxo-1,2-dihydro-pyridin-4-yl]-phenyl}-ethyl)-6-phenyl-[1,3]oxazinan-2-one] | 37 | 
COCC(C)Cn1ccc(-c2ccc([C@H](C)N3CC[C@](CC(C)(C)O)(c4ccccc4)OC3=O)cc2)cc1=O (stereo partly drawn) [Example 81, (S)-6-(2-Hydroxy-2-methyl-propyl)-3-((S)-1-{4-[1-(3-methoxy-2-methyl-propyl)-2-oxo-1,2-dihydro-pyridin-4-yl]-phenyl}-ethyl)-6-phenyl-[1,3]oxazinan-2-one] | 11 | 
CC(CO)Cn1ccc(-c2ccc([C@H](C)N3CC[C@](CC(C)(C)O)(c4ccccc4)OC3=O)cc2)cc1=O (stereo partly drawn) [Example 82, (S)-6-(2-Hydroxy-2-methyl-propyl)-3-((S)-1-{4-[1-(3-hydroxy-2-methyl-propyl)-2-oxo-1,2-dihydro-pyridin-4-yl]-phenyl}-ethyl)-6-phenyl-[1,3]oxazinan-2-one] | -12 | 
COC(C)(C)Cn1ccc(-c2ccc([C@H](C)N3CC[C@](CC(C)(C)O)(c4ccccc4)OC3=O)cc2)cc1=O [Example 83, (S)-6-(2-Hydroxy-2-methyl-propyl)-3-(1-{4-[1-(2-methoxy-2-methyl-propyl)-2-oxo-1,2-dihydro-pyridin-4-yl]-phenyl}-ethyl)-6-phenyl-[1,3]oxazinan-2-one] | 54 | IC50 (CYP3A4): > 50 µM
C[C@@H](c1ccc(-c2ccn(CC(C)(C)CO)c(=O)c2)cc1)N1CC[C@](CC(C)(C)O)(c2ccccc2)OC1=O [Example 90, 3-((S)-1-{4-[1-(3-Hydroxy-2,2-dimethyl-propyl)-2-oxo-1,2-dihydro-pyridin-4-yl]-phenyl}-ethyl)-(S)-6-(2-hydroxy-2-methyl-propyl)-6-phenyl-[1,3]oxazinan-2-one] | 4 | 
C[C@@H](c1ccc(-c2ccn(C)c(=O)c2)cc1)N1CC[C@](CC(C)(C)O)(c2ccccc2)OC1=O [anhydrous form of Example 48, (S)-6-(2-hydroxy-2-methylpropyl)-3-((S)-1-(4-(1-methyl-2-oxo-1,2-dihydropyridin-4-yl)phenyl)ethyl)-6-phenyl-1,3-oxazinan-2-one] |  | stability of the anhydrous state [1]: did not remain in the anhydrous state
C[C@@H](c1ccc(-c2ccn(C3CC3)c(=O)c2)cc1)N1CC[C@](CC(C)(C)O)(c2ccccc2)OC1=O [anhydrous form of Example 75, 3-{(S)-1-[4-(1-Cyclopropyl-2-oxo-1,2-dihydro-pyridin-4-yl)-phenyl]-ethyl}-(S)-6-(2-hydroxy-2-methyl-propyl)-6-phenyl-[1,3]oxazinan-2-one] |  | stability of the anhydrous state [1]: did not remain in the anhydrous state
C[C@@H](c1ccc(-c2ccn(C)c(=O)c2)cc1)N1CC[C@](CC(C)(C)O)(c2ccccc2)OC1=O [monohydrate of Example 48, (S)-6-(2-hydroxy-2-methylpropyl)-3-((S)-1-(4-(1-methyl-2-oxo-1,2-dihydropyridin-4-yl)phenyl)ethyl)-6-phenyl-1,3-oxazinan-2-one] |  | polymorphic change after slurry in water [1]: No polymorphic change was observed
C[C@@H](c1ccc(-c2ccn(C3CC3)c(=O)c2)cc1)N1CC[C@](CC(C)(C)O)(c2ccccc2)OC1=O [monohydrate of Example 75, 3-{(S)-1-[4-(1-Cyclopropyl-2-oxo-1,2-dihydro-pyridin-4-yl)-phenyl]-ethyl}-(S)-6-(2-hydroxy-2-methyl-propyl)-6-phenyl-[1,3]oxazinan-2-one] |  | polymorphic change after slurry in water [1]: No polymorphic change was observed
